Measurements as given in a melting point compilation (Tetko et al.; mined from patent text by program, amines drawn as free bases though some values may be those of a salt).

| Structure (SMILES) | melting point |
| --- | --- |
| COc1cc(-n2c(=O)cc(C(F)(F)F)n(N)c2=O)ccc1C#N | > 230 °C |
| COc1ccc(C(=O)N2c3ccccc3[C@H](N(C)c3ccccc3)C[C@@H]2C)cc1OC (relative stereo) | 180 to 181 °C |
| COc1ccc(C(=O)COc2ccc3oc(C(=O)c4ccc(OC)cc4)c(C)c3c2)cc1 | 155 to 157 °C |
| Cc1cc(-c2ccc(Cl)cc2)nc(-n2cnc(-c3ccc(S(N)(=O)=O)cc3)c2)n1 | 312 °C |
| Cc1cccc(C=NN2CCN(C3c4ccccc4C=C(C#N)c4ccccc43)CC2)n1 (centres undefined) | 200 to 202 °C |
| CC(C)C[C@H](N[C@H](CC(C)C)C(=O)OCc1ccccc1)C(=O)N[C@@H](Cc1ccccc1)C(N)=O | 145 to 146 °C |
| COc1ccc2[nH]c(=O)c(-c3nnnn3Cc3cccc(OCc4ccc5ccccc5n4)c3)cc2c1 | 215 to 217 °C |
| COc1ccc(C=NNC(=N)N)cc1OC1CCCC1 | 100 to 103 °C |
| CN1CCN(C2CCN(c3ncc4ncnc(Nc5ccc(F)c(Cl)c5)c4n3)CC2)CC1 | 163 to 165 °C |
| CN(C)C(=O)Nc1c(C(=O)c2cccc(Cl)c2)[nH]c2cc(Cl)ccc12 | 214 to 221 °C |
| CSc1sc(-c2ccno2)c2c1C(=O)CC(C)(C)C2 | 143 to 145 °C |
| CC(=O)Oc1ccccc1C(=O)Nc1cc(Cl)c(OC(C)=O)c(Cl)c1 | 154 to 156 °C |
| O=c1c(Br)c(OCc2ccc(F)c(F)c2F)ccn1Cc1cccc(F)c1 | 176 to 178 °C |
| O=c1oc(-c2ccc3c(c2)OCCO3)cc(O)c1SCc1ccccc1 | 192 to 193 °C |
| COC(=O)c1c(Sc2ccc(OC)cc2)nc(C(=O)c2ccccc2)n1Cc1cc2c(cc1Cl)OCO2 | 166 °C |
| CCOC(=O)c1ccc(-c2ccc(OCC(O)CO)c(-c3ccc4c(c3)C(C)(C)CCC4(C)C)c2)cc1 (centres undefined) | 56 °C |
| CC(=O)Oc1ccc(-c2c(C)c3ccc(F)cc3oc2=O)c(OC(C)=O)c1 | 148 to 149 °C |
| CNC(=O)Oc1ccc2oc3ccccc3c2c1 | 155 to 156 °C |
| CC(C)(C)OC(=O)N(CCCc1ccc(Cl)cc1)C1CCCC1N (centres undefined) | 95.3 to 111 °C |
| O=C(O)COc1cc(F)c(N2CCOCC2)cc1C(=O)NCc1ccc(Br)cc1F | 180 °C |
| COCCOc1cccc(-c2ccnc3c(C(=O)c4cccs4)cnn23)c1 | 112 to 116 °C |
| Nc1nc2c(ncn2CCC(COC(=O)n2ccnc2)COC(=O)n2ccnc2)c(=O)[nH]1 | > 300 °C |
| COC(=O)c1ccc(C(=O)C2=C(C)C(=O)c3ccccc3C2=O)cc1 | 162 °C |
| Clc1cc2c3c(c1)C(c1ccccc1)Nc1ccccc1N3CC2 (centres undefined) | 192 to 194 °C |
| CSc1ccc2c(c1)C(=O)C(C)(C)C(=O)N2 | 152 °C |

| Structure (SMILES) | melting point |
| --- | --- |
| O=Cc1c2ccc(Cl)cc2c(Cl)c2ccc(Cl)cc12 | 269 to 271 °C |
| CN1CCN(c2ccc(-c3nc4c(N[C@H]5[C@@H](C(N)=O)[C@@H]6C=C[C@H]5C6)c(Br)cnc4[nH]3)cc2)CC1 | 215 to 218 °C |
| CSC1C(=O)Nc2c(Nc3ccccc3)cccc21 (centres undefined) | 174 to 176 °C |
| CC(C)n1nc(-c2ncc(O)nc2-c2ccccc2)ccc1=O | 225 to 227 °C |
| CC(=O)NC1CCc2[nH]c3c(F)cc(F)cc3c2C1 (centres undefined) | 179 to 183 °C |
| CCOC(=O)c1cn(Cc2ccccc2)nc1NC(=O)NC1CCCCC1 | 94 to 95 °C |
| CC(=O)SCC(C)C(=O)N(CC(=O)O)C1CCC1 (centres undefined) | 162 to 164 °C |
| COc1cccc(C(N)c2sccc2S(=O)(=O)Nc2onc(C)c2Br)c1 (centres undefined) | 70 to 73 °C |
| CSC1NC(=O)N(Cc2ccccc2)C(=O)N1N=C(C)C (centres undefined) | 148 to 150 °C |
| Cc1oc(C=Cc2ccc(Cl)cc2)nc1C(=O)O | 244 to 245 °C |
| O=C(O)c1cccc2c(=O)c3ccccc3[nH]c12 | > 300 °C |
| CCn1ccc(Nc2cc(-c3cccc(N4Cc5cc(C(C)(C)C)ccc5C4=O)c3CO)cn(C)c2=O)n1 | 175 to 177 °C |
| ON=C(Cl)c1ccccc1 | 50 to 51 °C |
| CCOC(=O)C1=C(C)NC(C=O)=C(C(=O)OCC)C1c1ccccc1[N+](=O)[O-] (centres undefined) | 101 to 103 °C |
| O=C(C#Cc1ccc(-c2ccc(Cl)cc2)cc1)Nc1ccc(CNCC2CCCCC2)cc1 | 205 to 210 °C |
| CN(CC(=O)C(Cc1cccnc1)NC(=O)c1ccccc1)C(=O)N1CCCC1C(=O)O (centres undefined) | 92 to 120 °C |
| CCOC(=O)c1c(C(F)(F)F)nc(C(F)F)c(C(=O)OC)c1NC(C)C | 53 to 55 °C |
| CCC(=O)Oc1cc2c(s1)CCN(C(C(=O)C1CC1)c1ccccc1F)C2 (centres undefined) | 101 to 102 °C |
| CCc1c(C(=O)c2cc(C)cc(C)c2)n(C/C=C/CO)c(=O)[nH]c1=O | 172 to 173 °C |
| COC(=O)c1ccccc1S(=O)(=O)NC(=O)Nc1nc(Cl)c(C)c(OC)n1 | 204 to 205 °C |
| CC(C)(OC(=O)Cc1cccc(F)c1)C(=O)c1ccc(S(C)(=O)=O)cc1 | 173 °C |
| COC(=O)NNC(=O)c1ccc(Cl)cc1 | 160 °C |
| COc1cc(C)nc(NC(=O)NS(=O)(=O)c2ccsc2C(=O)N2CCCC2=O)n1 | 184 to 185 °C |
| Cc1cc(C(C)(C)CCl)c(Cl)nn1 | 41 to 42 °C |
